Experimental data as given in patent US20240124418A1 (BioTheryX, Inc., priority 2020, published 2024).

System: TNF-α
Assay: Cell-based TNF-α inhibition assay (LPS-induced PBMCs, Meso Scale)
Conditions: PBMC, PBMCs pretreated 1 h, LPS 100 ng/mL 18-24 h, percentage of stimulated DMSO control; for inhibition at 0.1 µM: compound concentration 0.1 μM; for inhibition at 1 µM: compound concentration 1 μM
In short: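 Thawed primary PBMCs (200,000 cells/well, RPMI 1640 with 10% FBS) were pretreated with compound for 1 h, then stimulated with 100 ng/mL LPS for 18–24 h. Supernatant TNF-α was measured by Meso Scale, and activity was expressed as percent inhibition relative to the stimulated DMSO control.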

SMILES	inhibition at 0.1 µM	inhibition at 1 µM
CCOc1cc([C@@H](CS(C)(=O)=O)N2C(=O)c3cccc(NC(=O)CCCCCCCN4CCN(CC(=O)Nc5ccc(C6CCC(=O)NC6=O)cc5)CC4)c3C2=O)ccc1OC (stereo partly drawn) [Compound A84, 8-[4-({[4-(2,6-Dioxopiperidin-3-yl)phenyl]carbamoyl}methyl)piperazin-1-yl]-N-{2-[(1S)-1-(3-ethoxy-4-methoxyphenyl)-2-methanesulfonylethyl]-1,3-dioxo-2,3-dihydro-1H-isoindol-4-yl}octanamide]	≥ 60%	≥ 60%
CCOc1cc([C@@H](CS(C)(=O)=O)N2C(=O)c3cccc(NC(=O)CCCCCCCN4CCN(CC(=O)Nc5cccc(C6CCC(=O)NC6=O)c5)CC4)c3C2=O)ccc1OC (stereo partly drawn) [Compound A85, 8-[4-({[3-(2,6-Dioxopiperidin-3-yl)phenyl]carbamoyl}methyl)piperazin-1-yl]-N-{2-[(1S)-1-(3-ethoxy-4-methoxyphenyl)-2-methanesulfonylethyl]-1,3-dioxo-2,3-dihydro-1H-isoindol-4-yl}octanamide]	≥ 60%	≥ 60%
CCOc1cc([C@@H](CS(C)(=O)=O)N2C(=O)c3cccc(NC(=O)CCCCCCCCCN4CCN(CC(=O)Nc5ccc(C6CCC(=O)NC6=O)cc5)CC4)c3C2=O)ccc1OC (stereo partly drawn) [Compound A86, 10-[4-({[4-(2,6-Dioxopiperidin-3-yl)phenyl]carbamoyl}methyl)piperazin-1-yl]-N-{2-[(1S)-1-(3-ethoxy-4-methoxyphenyl)-2-methanesulfonylethyl]-1,3-dioxo-2,3-dihydro-1H-isoindol-4-yl}decanamide]	≥ 60%	≥ 60%
CCOc1cc([C@@H](CS(C)(=O)=O)N2C(=O)c3cccc(NC(=O)CCCCCN4CCN(CC(=O)Nc5cccc(C6CCC(=O)NC6=O)c5)CC4)c3C2=O)ccc1OC (stereo partly drawn) [Compound A87, 6-[4-({[3-(2,6-Dioxopiperidin-3-yl)phenyl]carbamoyl}methyl)piperazin-1-yl]-N-{2-[(1S)-1-(3-ethoxy-4-methoxyphenyl)-2-methanesulfonylethyl]-1,3-dioxo-2,3-dihydro-1H-isoindol-4-yl}hexanamide]	≥ 60%	≥ 60%
CCOc1cc([C@@H](CS(C)(=O)=O)N2C(=O)c3cccc(NC(=O)CCCCCCCCCN4CCN(CC(=O)Nc5cccc(C6CCC(=O)NC6=O)c5)CC4)c3C2=O)ccc1OC (stereo partly drawn) [Compound A88, 10-[4-({[3-(2,6-Dioxopiperidin-3-yl)phenyl]carbamoyl}methyl)piperazin-1-yl]-N-{2-[(1S)-1-(3-ethoxy-4-methoxyphenyl)-2-methanesulfonylethyl]-1,3-dioxo-2,3-dihydro-1H-isoindol-4-yl}decanamide]	≥ 60%	≥ 60%
CCOc1cc([C@@H](CS(C)(=O)=O)N2C(=O)c3cc(CCCCCCCCCCCCNc4cccc(NC5CCC(=O)NC5=O)c4)cc(NC(C)=O)c3C2=O)ccc1OC (stereo partly drawn) [Compound A89, N-{6-[12-({3-[(2,6-Dioxopiperidin-3-yl)amino]phenyl}amino)dodecyl]-2-[(1S)-1-(3-ethoxy-4-methoxyphenyl)-2-methanesulfonylethyl]-1,3-dioxo-2,3-dihydro-1H-isoindol-4-yl}acetamide]	≥ 60%	≥ 60%
CCOc1cc([C@@H](CS(C)(=O)=O)N2C(=O)c3cc(CCCCCCCCCCCCNc4cccc(NC5CCC(=O)NC5=O)c4)cc(N)c3C2=O)ccc1OC (stereo partly drawn) [Compound A90, 4-Amino-6-[12-({3-[(2,6-dioxopiperidin-3-yl)amino]phenyl}amino)dodecyl]-2-[(1S)-1-(3-ethoxy-4-methoxyphenyl)-2-methanesulfonylethyl]-2,3-dihydro-1H-isoindole-1,3-dione]	≥ 60%	≥ 60%
O=C1CCC(N2Cc3c(cc(F)cc3C3CCN(CCCCCCCCCOc4cc(C(=O)Nc5c(Cl)cncc5Cl)ccc4OC(F)F)CC3)C2=O)C(=O)N1 (centres unmarked) [Compound B4, N-(3,5-Dichloropyridin-4-yl)-4-(difluoromethoxy)-3-((9-(4-(2-(2,6-dioxo-piperidin-3-yl)-6-fluoro-1-oxoisoindolin-4-yl)piperidin-1-yl)nonyl)oxy)benzamide]	≥ 60%	–
O=C1CCC(N2Cc3c(cc(F)cc3C3CCN(CCCCCOc4cc(C(=O)Nc5c(Cl)cncc5Cl)ccc4OC(F)F)CC3)C2=O)C(=O)N1 (centres unmarked) [Compound B5, N-(3,5-Dichloropyridin-4-yl)-4-(difluoromethoxy)-3-((5-(4-(2-(2,6-dioxo-piperidin-3-yl)-6-fluoro-1-oxoisoindolin-4-yl)piperidin-1-yl)pentyl)oxy)benzamide]	≥ 60%	–
O=C1CCC(N2Cc3c(cc(F)cc3C3CCN(CCCCCCCCCOc4ccc(C(=O)Nc5c(Cl)cncc5Cl)cc4OCC4CC4)CC3)C2=O)C(=O)N1 (centres unmarked) [Compound B12, 3-(Cyclopropylmethoxy)-N-(3,5-dichloropyridin-4-yl)-4-((9-(4-(2-(2,6-dioxopiperidin-3-yl)-6-fluoro-1-oxoisoindolin-4-yl)piperidin-1-yl)nonyl)oxy)benzamide]	20 to 40%	–
CC(=O)NC(=O)C(C)N1Cc2c(cc(F)cc2C2CCN(CCCCCCCCCOc3cc(C(=O)Nc4c(Cl)cncc4Cl)ccc3OC(F)F)CC2)C1=O (centres unmarked) [Compound B13, 3-((9-(4-(2-(1-Acetamido-1-oxopropan-2-yl)-6-fluoro-1-oxoisoindolin-4-yl)piperidin-1-yl)nonyl)oxy)-N-(3,5-dichloropyridin-4-yl)-4-(difluoromethoxy)benzamide]	≥ 60%	≥ 60%
O=C1CCC(N2Cc3c(csc3COc3ccc(CNCCCCCCCOc4cc(C(=O)Nc5c(Cl)cncc5Cl)ccc4OC(F)F)cc3)C2=O)C(=O)N1 (centres unmarked) [Compound B18, N-(3,5-Dichloropyridin-4-yl)-4-(difluoromethoxy)-3-((7-((4-((5-(2,6-dioxo-piperidin-3-yl)-4-oxo-5,6-dihydro-4H-thieno[3,4-c]pyrrol-1-yl)methoxy)benzyl)amino)heptyl)-oxy)benzamide]	≥ 60%	≥ 60%
Cc1ncsc1-c1ccc(CNC(=O)[C@@H]2C[C@@H](O)CN2C(=O)[C@@H](NC(=O)CCCCCCCCOc2cc(C(=O)Nc3c(Cl)cncc3Cl)ccc2OCC2CC2)C(C)(C)C)cc1 [Compound B22, (2S,4R)-1-((S)-2-(9-(2-(Cyclopropylmethoxy)-5-((3,5-dichloropyridin-4-yl)carbamoyl)phenoxy)nonanamido)-3,3-dimethylbutanoyl)-4-hydroxy-N-(4-(4-methylthiazol-5-yl)benzyl)pyrrolidine-2-carboxamide]	< 20%	20 to 40%
